Consider 4 compounds from article PMC7483475, “The Sporomusa type Nfn is a novel type of electron-bifurcating transhydrogenase that links the redox pools in acetogenic bacteria” (Scientific Reports, 2020).

For experiment [1], the target named is T1, Stn complex (Sporomusa type Nfn; StnABC) (Sporomusa ovata, UniProt A0A0U1KYI6+A0A0U1KYM9).
T1 construct: gene SpAn4DRAFT_2936; native purification from S. ovata cytoplasm, untagged; ~840 kDa tetrameric heterotrimer; identified by MALDI-TOF-MS; with Sporomusa type Nfn subunit A (NuoE-like, HydC/HndA-like [2Fe-2S] subunit)
T1 sequence (A0A0U1KYM9 1-584): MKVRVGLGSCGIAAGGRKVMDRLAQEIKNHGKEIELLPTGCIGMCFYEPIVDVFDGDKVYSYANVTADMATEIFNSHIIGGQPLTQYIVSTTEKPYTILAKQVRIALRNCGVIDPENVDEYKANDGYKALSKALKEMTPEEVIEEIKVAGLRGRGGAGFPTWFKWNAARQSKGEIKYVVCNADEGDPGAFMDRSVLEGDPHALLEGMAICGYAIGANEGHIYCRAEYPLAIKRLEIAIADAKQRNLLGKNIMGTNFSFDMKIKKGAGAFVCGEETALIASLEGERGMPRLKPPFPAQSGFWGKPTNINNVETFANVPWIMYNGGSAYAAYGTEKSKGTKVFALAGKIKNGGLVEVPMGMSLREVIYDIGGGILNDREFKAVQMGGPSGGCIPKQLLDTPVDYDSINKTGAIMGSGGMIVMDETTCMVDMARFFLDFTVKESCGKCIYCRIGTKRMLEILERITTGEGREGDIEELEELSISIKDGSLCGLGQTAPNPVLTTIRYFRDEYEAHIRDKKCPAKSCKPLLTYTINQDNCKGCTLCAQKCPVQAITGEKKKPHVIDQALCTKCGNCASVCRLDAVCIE
T1 sequence (A0A0U1KYI6 1-1172): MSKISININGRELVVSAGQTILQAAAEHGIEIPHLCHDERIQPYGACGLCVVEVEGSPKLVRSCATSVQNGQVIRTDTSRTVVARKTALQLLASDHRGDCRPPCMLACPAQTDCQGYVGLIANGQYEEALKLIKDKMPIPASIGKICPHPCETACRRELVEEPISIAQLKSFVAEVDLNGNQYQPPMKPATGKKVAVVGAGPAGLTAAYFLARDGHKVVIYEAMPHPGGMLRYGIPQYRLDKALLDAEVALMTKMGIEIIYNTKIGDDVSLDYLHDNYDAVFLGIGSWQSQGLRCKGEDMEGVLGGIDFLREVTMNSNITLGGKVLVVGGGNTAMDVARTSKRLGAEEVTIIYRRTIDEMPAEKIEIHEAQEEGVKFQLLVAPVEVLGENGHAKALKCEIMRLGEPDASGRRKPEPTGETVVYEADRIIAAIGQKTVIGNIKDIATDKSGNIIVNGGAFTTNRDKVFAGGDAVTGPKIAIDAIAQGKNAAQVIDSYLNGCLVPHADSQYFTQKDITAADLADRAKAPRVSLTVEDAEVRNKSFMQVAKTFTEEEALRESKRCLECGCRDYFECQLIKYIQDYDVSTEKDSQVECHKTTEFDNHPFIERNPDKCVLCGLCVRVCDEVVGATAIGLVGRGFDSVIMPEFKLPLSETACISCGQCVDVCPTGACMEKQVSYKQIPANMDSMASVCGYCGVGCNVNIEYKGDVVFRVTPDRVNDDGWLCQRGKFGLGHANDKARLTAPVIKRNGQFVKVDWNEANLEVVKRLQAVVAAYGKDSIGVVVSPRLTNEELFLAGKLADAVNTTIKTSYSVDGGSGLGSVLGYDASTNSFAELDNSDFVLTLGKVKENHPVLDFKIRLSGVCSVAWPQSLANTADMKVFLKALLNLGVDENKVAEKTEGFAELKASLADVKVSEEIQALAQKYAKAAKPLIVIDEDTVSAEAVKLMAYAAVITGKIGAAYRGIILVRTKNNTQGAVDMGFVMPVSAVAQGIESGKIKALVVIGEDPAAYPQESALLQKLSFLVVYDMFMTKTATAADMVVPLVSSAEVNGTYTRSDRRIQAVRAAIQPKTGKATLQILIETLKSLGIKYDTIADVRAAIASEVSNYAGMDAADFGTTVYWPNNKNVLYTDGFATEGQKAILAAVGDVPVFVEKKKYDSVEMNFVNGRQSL
T1 sequence (A0A0U1KYW8 1-178 partner): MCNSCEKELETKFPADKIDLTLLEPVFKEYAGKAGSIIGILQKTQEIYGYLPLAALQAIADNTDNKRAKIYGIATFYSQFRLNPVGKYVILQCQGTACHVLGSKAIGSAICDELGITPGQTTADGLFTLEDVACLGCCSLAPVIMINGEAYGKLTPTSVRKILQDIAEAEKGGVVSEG
Nature of the experiment: protein precipitation and thin layer chromatography of released flavin. The class given is binding. To be noted: bound flavin, loosely bound; FAD and FMN present in purification buffers.

In experiment [2] the target is T2, StnC (strep-tagged) (Sporomusa ovata, UniProt A0A0U1KYI6).
T2 construct: gene SpAn4DRAFT_2937; isolated subunit, N-terminal Strep-tag kept, E. coli BL21 (DE3) delta-iscR; translated from primers: N-term MWSHPQFEKSA-SKISININGR, C-term NFVNGRQSL
T2 sequence (A0A0U1KYI6 2-1172): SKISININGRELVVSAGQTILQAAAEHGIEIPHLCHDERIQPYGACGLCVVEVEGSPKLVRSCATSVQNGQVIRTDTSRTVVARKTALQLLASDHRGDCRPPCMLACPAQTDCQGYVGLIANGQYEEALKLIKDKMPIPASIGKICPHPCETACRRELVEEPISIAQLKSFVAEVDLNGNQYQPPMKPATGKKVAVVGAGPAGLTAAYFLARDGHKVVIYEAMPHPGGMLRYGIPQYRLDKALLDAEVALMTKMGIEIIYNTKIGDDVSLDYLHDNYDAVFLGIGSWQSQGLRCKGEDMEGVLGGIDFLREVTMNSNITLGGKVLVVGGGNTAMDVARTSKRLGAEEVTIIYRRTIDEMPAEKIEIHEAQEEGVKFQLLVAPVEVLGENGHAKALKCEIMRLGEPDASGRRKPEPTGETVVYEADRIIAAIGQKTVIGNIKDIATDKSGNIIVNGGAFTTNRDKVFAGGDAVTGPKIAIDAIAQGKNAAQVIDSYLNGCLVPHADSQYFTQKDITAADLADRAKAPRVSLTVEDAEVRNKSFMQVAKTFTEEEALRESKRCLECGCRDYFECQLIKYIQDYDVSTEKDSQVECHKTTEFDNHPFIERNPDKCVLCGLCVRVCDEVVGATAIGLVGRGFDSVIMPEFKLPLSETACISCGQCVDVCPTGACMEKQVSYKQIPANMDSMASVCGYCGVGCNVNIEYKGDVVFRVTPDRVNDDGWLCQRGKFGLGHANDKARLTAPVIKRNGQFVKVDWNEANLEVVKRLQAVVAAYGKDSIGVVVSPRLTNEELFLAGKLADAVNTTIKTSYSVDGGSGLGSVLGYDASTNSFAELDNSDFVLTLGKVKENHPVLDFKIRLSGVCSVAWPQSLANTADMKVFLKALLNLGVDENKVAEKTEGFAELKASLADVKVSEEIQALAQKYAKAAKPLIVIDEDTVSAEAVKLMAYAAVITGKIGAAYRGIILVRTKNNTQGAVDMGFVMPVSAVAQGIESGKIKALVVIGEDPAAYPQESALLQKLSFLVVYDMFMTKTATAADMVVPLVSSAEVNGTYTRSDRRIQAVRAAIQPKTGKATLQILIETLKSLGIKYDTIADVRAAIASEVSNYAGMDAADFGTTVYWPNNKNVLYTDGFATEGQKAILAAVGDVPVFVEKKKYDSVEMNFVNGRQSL
Nature of the experiment: thin layer chromatography of bound flavin. Type of experiment: binding. To be noted: bound flavin of recombinant StnC.

Experiment [3] concerns the target T2, StnC (strep-tagged). Nature of the experiment: spectrophotometric FMN reduction, […] nm. To be noted: electron acceptor, 0.2 mM FMN, 0.25 mM NADPH; 100 mM Tris/HCl pH 7.5, 20 °C. The class given is biochemical.
Experiment [4] concerns the target T2, StnC (strep-tagged). Kind of experiment: spectrophotometric NADPH-dependent acceptor reduction. The class given is biochemical. To be noted: acceptors methyl viologen, FAD, FMN or ferricyanide; 100 mM Tris/HCl pH 7.5, 20 °C.
The target of experiment [5] is Sporomusa type Nfn (Stn) complex, heterotrimer of StnA, StnB and StnC (Sporomusa ovata). Kind of experiment: SEC; analytical gel filtration of the purified Stn complex on Superdex 200; heterotrimer to tetramer of heterotrimers.

Turning to `Cc1cc2nc3c(=O)[nH]c(=O)nc-3n(C[C@H](O)[C@H](O)[C@H](O)COP(=O)(O)OP(=O)(O)OC[C@H]3O[C@@H](n4cnc5c(N)ncnc54)[C@H](O)[C@@H]3O)c2cc1C` [FAD], in experiment [1], the “protein precipitation and thin layer chromatography of released flavin” value is given as “FAD was identified to be the only flavin bound”. In addition, the “thin layer chromatography of bound flavin” value in experiment [2] is on record as “The identity of bound Flavin was elucidated by TLC to be FAD”.

Take `Cc1cc2nc3c(=O)[nH]c(=O)nc-3n(C[C@H](O)[C@H](O)[C@H](O)COP(=O)(O)O)c2cc1C` [FMN]: the “spectrophotometric FMN reduction, 450 nm” value in experiment [3] was “The purified protein exhibited NADPH oxidation with methyl viologen, FAD, FMN and ferricyanide”.

As for `NC(=O)C1=CN([C@@H]2O[C@H](COP(=O)(O)OP(=O)(O)OC[C@H]3O[C@@H](n4cnc5c(N)ncnc54)[C@H](OP(=O)(O)O)[C@@H]3O)[C@@H](O)[C@H]2O)C=CC1` [NADPH], in experiment [4], the “spectrophotometric NADPH-dependent acceptor reduction” value is “The purified protein exhibited NADPH oxidation with methyl viologen, FAD, FMN and ferricyanide”.

As to “Sporomusa type Nfn (Stn) complex, heterotrimer of StnA, StnB and StnC”, the stoichiometry N in experiment [5] is 4.

As usually defined, the stoichiometry N is the number of molecules, sites or subunits per partner or assembly.
